Experimental data taken from patent publication US20250154611A1, “SYSTEMS AND METHODS TO DETECT STEM CELL STRESS AND USES THEREOF” (Wayne State University, priority 2014, published 2025).
Values joined by “and” are separate entries in the source; they are usually repeats but may differ in a detail not shown here. Equal values may be shown once. Read-outs that look alike come from different tables or passages of the source.

Key:
JNK = experiment: phospho-JNK western blot in mESCs under 200 mM sorbitol; type: cell-based, mouse; conditions: persisted throughout 1 hr
Description: FIG. 14. […] Blots are representative of triplicate experiments. Phospho-proteins and their loading controls are grouped between black lines.
FIG. 15. […] Blots are representative of triplicate experiments.
Hyperosmotic activation of signaling enzymes. […] Zhong, 2010; Xie, 2011. […] To determine the kinetics of activation of these five kinases in the described system, mESCs were treated with 200 mM sorbitol for 1 hr. Expression levels of the activated (i.e., phosphorylated) enzymes were assayed by western blot analysis (FIG. 14), including phospho-p38MAPK, phospho-JNK, phospho-MEK1/2, and phospho-AKT (the downstream effector of PI3K signaling).
Efficacy of enzyme inhibitors.

Rex1-RFP ESCs = experiment: Cell counts and doubling rate of Rex1-RFP ESCs at time zero and 3 days of sorbitol; type: cell-based, mouse; conditions: 72 hr; for Doubling Rate: 0 mM 32.7 hr; for Relative Cell# (Total #, OUTSIDE BOX): time zero = 100, 0 mM = 460
From the text: FIG. 28. Partial validation of the Theory of Compensatory Differentiation whereby stress decreases in size the normal levels of stem cell expansion and, in the nonmorbid stress range where doubling rates were near-normal, the diminished potency group that is enabled to differentiate is constant in size. […] A modified Venn diagram from previous modeling is presented here and analyzed with respect to supporting flow cytometry data for changes in potency subpopulation sizes derived from Table 8 and discussed in the text. For convenience, Table 8 is reproduced here:
Finally it was tested whether endogenous Rex1 protein levels decreased commensurately with decreases in Rex1-RFP activity levels assayed in FIG. 24. Rex1-RFP ESCs were cultured for 3 days with 0-300 mM sorbitol and assayed by immunoblot for endogenous Rex1 levels normalized to ACTB loading controls and with time zero unstressed Rex1 set to 100 as a baseline level. Whereas stress-induced decrease in Rex1 activity in FIG. 24 were 20% and 70% at 200 mM and 300 mM sorbitol, respectively endogenous Rex1 protein losses were 30% and 70% at 200 mM and 300 mM, respectively (FIG. 27). Through the series from 200 mM to 300 mM sorbitol there was generally good agreement between activity level and endogenous protein level for Rex1 at 3 days of stress and with Rex1 protein loss at 1 day (Example 2). To correlate stress-induced Rex1 potency loss with stress-induced diminished cell growth rates, cell counts were performed at time zero and at 3 days over the same sorbitol dose range as in FIG. 27 and FIG. 24 and FIGS. 26A & 26B. […]; see Brief Description of the Figures for Table 8).
The stress dose-dependent cell number of low potency cells can be determined by multiplying the fractional subpopulation size of cells with potency loss, which increases with stress and the decreasing cell numbers with increasing stress. This was done in Table 8 and compared with a previously published Venn diagram for compensatory differentiation (Puscheck, 2015, MB; Rappolee, 2013), modified to produce FIG. 28. In the stress-dose range where population size decreases, but increasing doubling rate is in a manageable range, the absolute size of the subpopulation of potency loss (intermediate and very low dim cells) is remarkably the same. At stress doses where very large doubling rate increases occur the subpopulation number with potency loss decreases, probably due to stem cell morbidity at these higher hyperosmotic stress levels (Example 2). Thus all three lines of evidence summarized here are consistent with the theory, but with limitations.

Rex1 = experiment: Immunoblot of endogenous Rex1 protein in Rex1-RFP ESCs; type: cell-based, mouse; conditions: 3 days
Description: FIG. 27. Rex1 promoter RFP have a stress dose-dependent loss of endogenous Rex1 protein corresponding to dose-dependent loss of Rex1 activity shown in FIG. 24. (A) Rex1-RFP mESCs expressing cultured until 30% confluent, treated with 0 mM, 200-300 mM sorbitol in 25 mM increments for 3 days (as in FIG. 24), lysed, size fractionated by SDS-PAGE, blotted, probed for Rex1 and ACTB proteins and analyzed for changes compared to time zero and for stress dose responses. The histogram bars are derived from three independent experiments, one of which is shown in the top panel of FIG. 27, shown are X+/−s.e.m., n=3, (a) is P<0.01 and (b) indicates not significant. FIG. 27, bottom panel.
Immunoblot. After treatment, the ESCs were rinsed with PBS, lysed with RIPA buffer supplemented with protease inhibitors and sonicated briefly. Total protein concentration was determined using Pierce BCA protein assay reagent admixed with Laemmli sample buffer, and boiled for 5 min. Equal total protein amounts from the lysates were size-fractionated by 5-20% gradient SDS-PAGE and transferred onto nitrocellulose membrane. Rex1 […] signals were detected using ECL reagent with X-ray films and quantified using ImageJ 1.48v software (NIH, USA).
Finally it was tested whether endogenous Rex1 protein levels decreased commensurately with decreases in Rex1-RFP activity levels assayed in FIG. 24. Rex1-RFP ESCs were cultured for 3 days with 0-300 mM sorbitol and assayed by immunoblot for endogenous Rex1 levels normalized to ACTB loading controls and with time zero unstressed Rex1 set to 100 as a baseline level. Whereas stress-induced decrease in Rex1 activity in FIG. 24 were 20% and 70% at 200 mM and 300 mM sorbitol, respectively endogenous Rex1 protein losses were 30% and 70% at 200 mM and 300 mM, respectively (FIG. 27). Through the series from 200 mM to 300 mM sorbitol there was generally good agreement between activity level and endogenous protein level for Rex1 at 3 days of stress and with Rex1 protein loss at 1 day (Example 2). […]

SAPK = conditions: 100 mM, 20% O2, despite FGF4; cited from earlier work

For `OC[C@@H](O)[C@@H](O)[C@H](O)[C@@H](O)CO` [sorbitol], the “time at which activated JNK was first detected” value (JNK) was 20 min, the “% Dim + Intermediate × Cell# (INSIDE BOX cell number)” value (“% Dim + Intermediate × Cell#” below) (Rex1-RFP ESCs; 200 mM) was 9893 and the “Doubling Rate” value (Rex1-RFP ESCs; 200 mM) was 34.1 h. For the same molecule, the “Relative Cell# (Total #, OUTSIDE BOX)” value (Rex1-RFP ESCs; 200 mM) was 432, the “% Dim + Intermediate × Cell#” value (Rex1-RFP ESCs; 225 mM) was 9930 and the “Doubling Rate” value (Rex1-RFP ESCs; 225 mM) was 35.6 h. The “Relative Cell# (Total #, OUTSIDE BOX)” value (Rex1-RFP ESCs; 225 mM) was 407, the “% Dim + Intermediate × Cell#” value (Rex1-RFP ESCs; 250 mM) was 9968 and the “Doubling Rate” value (Rex1-RFP ESCs; 250 mM) was 39.3 h. The “Relative Cell# (Total #, OUTSIDE BOX)” value (Rex1-RFP ESCs; 250 mM) was 356, the “% Dim + Intermediate × Cell#” value (Rex1-RFP ESCs; 275 mM) was 7418 and the “Doubling Rate” value (Rex1-RFP ESCs; 275 mM) was 51.4 h. The “% Dim + Intermediate × Cell#” value (Rex1-RFP ESCs; 300 mM) was 4540, the “Doubling Rate” value (Rex1-RFP ESCs; 300 mM) was 103.4 h and the “Relative Cell# (Total #, OUTSIDE BOX)” value (Rex1-RFP ESCs; 300 mM) was 161 and 162. The cell doubling rates (Rex1-RFP ESCs; 200-250 mM range) was 34.1 to 39.3 h, the cell doubling rates (Rex1-RFP ESCs; 275-300 mM) was 51.4 to 103.4 h and the “lethality in mESCs” value (mESCs; 200 mM) was “nonlethal”. The “lethality in mESCs” value (mESCs; 400 mM) was “lethal”, the “endogenous Rex1 protein loss” value (Rex1; 200 mM) was 30% and the “endogenous Rex1 protein loss” value (Rex1; 300 mM) was 70%. For the same molecule, the “endogenous Rex1 protein” value (Rex1; 225-300 mM, not at 200 mM) was “significantly lower” and the SAPK increase (SAPK) was 5 fold.
